The record followed here is ChEMBL document CHEMBL5149985, “Discovery of cytotoxic natural products from Red Sea sponges: Structure and synthesis” (Eur J Med Chem, 2021).

In one assay the test system is HeLa. The experiment in a line: Anticancer activity against human HeLa cells assessed as inhibition of cell growth. In kind it is functional, cell-based.
Another assay deals with Daoy. The experiment in a line: Anticancer activity against human Daoy cells assessed as inhibition of cell growth. In kind it is functional, cell-based.
The subject of assay [1] is A549. In words: cells. As to conditions: Homo sapiens, A549, 72 h.
Description: Anticancer activity against human A549 cells assessed as inhibition of cell growth measured after 72 hrs by SRB assay
Assay [2] deals with MDA-MB-231. The experiment in a line: cells. As to conditions: Homo sapiens, MDA-MB-231, 72 h.
Description: Anticancer activity against human MDA-MB-231 cells assessed as inhibition of cell growth measured after 72 hrs by SRB assay
The subject of assay [3] is HT-29. In words: cells. Conditions: Homo sapiens, HT-29, 72 h.
Description: Anticancer activity against human HT-29 cells assessed as inhibition of cell growth measured after 72 hrs by SRB assay
The subject of assay [4] is HepG2. The experiment in a line: Anticancer activity against human HepG2 cells assessed as inhibition of cell growth. In kind it is functional, cell-based.
Assay [5] relates to A549. In words: Anticancer activity against human A549 cells assessed as cell growth inhibition. In kind it is functional, cell-based.
Another assay has as its system PC-3. The experiment in a line: Anticancer activity against human PC-3 cells assessed as inhibition of cell growth. The assay is classed as functional, cell-based.
The test system of assay [6] is MCF7. In words: Anticancer activity against human MCF7 cells assessed as inhibition of cell growth. In kind it is functional, cell-based.
Assay [7] relates to A549. The experiment in a line: Antiproliferative activity against human A549 cells assessed as cell growth inhibition incubated for 72 hrs by SRB assay. In kind it is functional, cell-based. As to conditions: A549, 72 h.
Assay [8] deals with HT-29. The experiment in a line: Antiproliferative activity against human HT-29 cells assessed as cell growth inhibition incubated for 72 hrs by SRB assay. The assay is classed as functional, cell-based. Conditions: HT-29, 72 h. On the technique in general: Sulforhodamine B stains cellular protein and so reports cell mass.
In assay [9] the test system is MDA-MB-231. The experiment in a line: Antiproliferative activity against human MDA-MB-231 cells assessed as cell growth inhibition incubated for 72 hrs by SRB assay. In kind it is functional, cell-based. As to conditions: MDA-MB-231, 72 h.
In assay [10] the test system is HT-29. In words: Anticancer activity against human HT-29 cells assessed as cell growth inhibition. The assay is classed as functional, cell-based.
The test system of another assay is SK-MEL-28. The experiment in a line: Anticancer activity against human MEL-28 cells assessed as cell growth inhibition. The assay is classed as functional, cell-based.
Assay [11] relates to P388. In words: Anticancer activity against mouse P388 cells assessed as cell growth inhibition. In kind it is functional, cell-based.
Assay [12] deals with P388. In words: Anticancer activity against mouse P388 cells assessed as inhibition of cell growth. The assay is classed as functional, cell-based.
Assay [13] relates to HT-29. In words: Anticancer activity against human HT-29 cells assessed as inhibition of cell growth. In kind it is functional, cell-based.
Assay [14] concerns A549. In words: Anticancer activity against human A549 cells assessed as inhibition of cell growth. The assay is classed as functional, cell-based.
The subject of assay [15] is L5178Y. The experiment in a line: Anticancer activity against mouse L5178Y assessed as cell growth inhibition by [3H]-thymidine assay relative to control. The assay is classed as functional.
Assay [16] deals with L5178Y. In words: Anticancer activity against mouse L5178Y assessed as cell growth inhibition by [3H]-thymidine assay. The assay is classed as functional, cell-based.
Assay [17] has as its system A549. The experiment in a line: Anticancer activity against human A549 cells assessed as inhibition of cell growth by dilution assay. The assay is classed as functional, cell-based.
The subject of assay [18] is P388. The experiment in a line: Anticancer activity against mouse P388 cells assessed as inhibition of cell growth by dilution assay. In kind it is functional, cell-based.
Assay [19] relates to HT-29. The experiment in a line: Anticancer activity against human HT-29 cells assessed as inhibition of cell growth by dilution assay. In kind it is functional, cell-based.
Assay [20] concerns HT-29. The experiment in a line: Anticancer activity against human HT-29 cells assessed as cell growth inhibition by crystal violet staining based assay. The assay is classed as functional.
For a further assay, the system named is MM1.S. In words: Anticancer activity against human MM1.S cells assessed as cell growth inhibition by MTT assay. The assay is classed as functional, cell-based.
The subject of another assay is OVCAR-3. The experiment in a line: Anticancer activity against human OVCAR-3 cells assessed as cell growth inhibition by crystal violet staining based assay. In kind it is functional.
Assay [21] has as its system HepG2. The experiment in a line: Anticancer activity against human HepG2 cells assessed as inhibition of cell growth incubated for 48 hrs by crystal violet staining based microplate reader analysis. The assay is classed as functional. Conditions: HepG2, 48 h.
Another assay has as its system HCT-116. The experiment in a line: Anticancer activity against human HCT-116 cells assessed as inhibition of cell growth by MTS assay. In kind it is functional, cell-based. In general terms: Formazan colour is commonly taken as a measure of viable cells.
Another assay is filed under the species Homo sapiens. The experiment in a line: Inhibition of actin (unknown origin) polymerization at 1 uM incubated for 20 mins in presence of ATP by ELISA analysis relative to control. A general note: An ELISA detects its analyte on a solid surface through an enzyme-linked reagent.
Assay [22] can be described thus: Inhibition of actin (unknown origin) polymerization at 100 nM incubated for 20 mins in presence of ATP by ELISA analysis relative to control. Conditions: Homo sapiens.
Assay [23] has as its system MCF7. In words: Potency index, ratio of latrunculin IC50 to test compound IC50 for cytotoxicity against human MCF7 cells. In kind it is functional.
Assay [24] concerns MDA-MB-231. In words: Anticancer activity against human MDA-MB-231 cells assessed as inhibition of cell growth incubated for 72 hrs by MTT assay. In kind it is functional, cell-based. As to conditions: MDA-MB-231, 72 h.
A short description of assay [25]: Inhibition of actin (unknown origin) polymerization incubated for 20 mins in presence of ATP by ELISA analysis. Further details: species or system Homo sapiens.
Assay [26] deals with MCF7. In words: Anticancer activity against human MCF7 cells assessed as inhibition of cell growth incubated for 72 hrs by MTT assay. Conditions: MCF7, 72 h. In kind it is functional, cell-based.

Where only a bound is given, the exact number is not on record here.

For orientation: IC50 means the concentration at which inhibition is half-maximal. Turning to `O=C(O)CCCCCC#C/C=C/CCCCC#C/C=C/Br`, the IC50 in the assay on HeLa stood at 0.0865 µM; in the assay on Daoy, 0.0658 µM.

With `CC[C@H](C)[C@@H]1NC(=O)[C@@H](C(O)C(C)C)NC(=O)[C@H](Cc2ccc(O)cc2)NC(=O)[C@H]([C@H](C)O)NC(=O)[C@@H](C)NC(=O)[C@H](CC(C)C)NC(=O)[C@H](Cc2ccc(O)cc2)NC(=O)[C@H](Cc2ccccc2)NC1=O` (some centres undefined), the 50% inhibitory concentration (IC50) in the assay on A549 [1] was found to be 29 µM; in the assay on MDA-MB-231 [2], 29 µM; in the assay on HT-29 [3] it was 30 µM.

As for `O=C(O)CCCC#CC#C/C=C/CCCCCCC=C(Br)Br`, the half-maximal inhibitory concentration (IC50) with HepG2 [4] turned out to be 0.0412 µM; in the assay on HeLa, 0.0535 µM; in the assay on Daoy, 0.0356 µM.

As for `C=C1CCC[C@@H]2[C@@](C)(CC[C@@]3(C)CC[C@@H]([C@H](C)C(=O)O)OO3)[C@H](C)CC[C@@]12C`, the figures for the IC50 in the assay with A549 [5], in the assay with PC-3 and in the assay on MCF7 [6] were 24 µM, 44 µM and 36 µM, respectively.

Turning to `NC(=O)c1cnc(-c2c[nH]c3cc(O)ccc23)c2[nH]c3ccc(O)cc3c12`, the figures for the IC50 in the assay with A549 [7], in the assay with HT-29 [8] and in the assay with MDA-MB-231 [9] were 35 µM, 45 µM and 42 µM, respectively.

As for `C=C1CCC[C@@H]2[C@@](C)(CC[C@@]3(C)CCn4cnc5ncnc(c54)N3O)[C@H](C)CC[C@]12C`, the half-maximal inhibitory concentration (IC50) in the assay with HT-29 [10] is 0.12 µM; with A549 [5] it was 0.12 µM; in the assay on SK-MEL-28, 0.24 µM; in the assay on P388 [11], 0.24 µM.

With `CC1=C(CCC(C)(O)/C=C/C[C@@]2(C)CC[C@H]([C@@H](C)C(=O)O)OO2)C(C)(C)CCC1` (some centres undefined), the half-maximal inhibitory concentration (IC50) in the assay on P388 [12], with HT-29 [13] and with A549 [14] was more than 0.0024 µM each time.

On to `COC(=O)c1c[nH]c2ccc(O)cc12`, for which, in the assay with L5178Y [15], the “inhibition (INH)” value turned out to be 36%. The 50% inhibitory concentration (IC50) in the assay on L5178Y [16] was found to be 0.052 µM.

For the compound `CC1(C)CCC[C@]2(C)[C@H]3C[C@@H](O)[C@]4(C)c5cocc5C(=O)C[C@H]4[C@]3(C)CC[C@@H]12` [SALMAHYRTISOL B], the concentration for half-maximal inhibition (IC50) with A549 [17] was 0.0022 µM; in the assay with P388 [18] it was 0.0022 µM; with HT-29 [19] it was more than 0.0022 µM.

Take `COc1cccc2c1C(=O)c1c(O)c3c(c(O)c1C2=O)C[C@@](O)(C(=O)CO)C[C@@H]3O[C@H]1C[C@H](N)[C@H](O)[C@H](C)O1` [DOXORUBICIN]: the concentration for half-maximal inhibition (IC50) in the assay on A549 [1] is 0.35 µM; with MDA-MB-231 [2], 0.3 µM; with HT-29 [3], 0.4 µM.

Take `O=C1Nc2cc(Br)ccc2[C@@]1(c1cc2ccccc2[nH]1)c1c[nH]c2ccccc12`: the values for the IC50 in the assay on HT-29 [20], with MM1.S and in the assay with OVCAR-3 were 12.5 µM, 11 µM and 9 µM, respectively.

`CC1=CCC2C(CC[C@@]2(C)O)C(C)(C)[C@@H]1CC[C@H]1[C@@](C)(O)CCC2OC(C)(C)C(=O)CC[C@@]21C` (some centres undefined): in the assay with HepG2 [21], the IC50 was found to be 0.0069 µM.

On to `O=C1Nc2ccc(Br)cc2[C@@]1(c1cc2ccccc2[nH]1)c1c[nH]c2ccccc12`, for which the results for the half-inhibitory concentration (IC50) with HT-29 [20], in the assay with MM1.S and with OVCAR-3 were 8 µM, 9 µM and 7 µM, respectively.

As to `CO[C@@H]1C[C@H](C)O[C@@H](C(O)C[C@H](C)[C@H](O)[C@H](C)[C@H]2OC(=O)/C=C/C(C)=C/C[C@H](O)C[C@H]3C=CC[C@@H](C[C@H](OC)[C@@H](C)[C@@H](O)C[C@@H](O)[C@H](C)[C@@H]([C@@H](C)[C@@H](O)[C@@H](C)CC[C@H]4C[C@H](OC)C[C@H](C)O4)OC(=O)/C=C/C(C)=C/C[C@H](O)C[C@@H]4C=CC[C@@H](C[C@H](OC)[C@@H](C)[C@@H](O)C[C@@H](O)[C@@H]2C)O4)O3)C1` (some centres undefined), the IC50 with HCT-116 came to 0.0056 µM.

One may read the inhibition as the drop in the measured response relative to a control, in per cent. For the compound `C/C1=C/C(=O)O[C@@H]2C[C@@H](CC[C@H](C)/C=C\C=C\CC1)O[C@@](O)([C@@H]1CSC(=O)N1CO)C2`, the values for the inhibition (in the assay filed under Homo sapiens; in [22]) were 90% and 35%, respectively. Besides, in the assay with MCF7 [23], the “Ratio IC50” value is recorded as 4. The IC50 with MDA-MB-231 [24] was 2.99 µM; in [25] it was 0.21 µM; in the assay on MCF7 [26], 0.12 µM.

Turning to `CC(C)[C@]1(O)CC[C@@]2(C)C[C@](O)([C@H]3CC[C@@H]4[C@]3(C)CC[C@H]3OC(C)(C)[C@H](O)C(=O)[C@@H](O)[C@]43C)CC[C@@H]21`, the half-maximal inhibitory concentration (IC50) in the assay on HepG2 [21] was found to be 0.023 µM.
